The source made the active and inactive calls.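 Rule for the calls: active = PP2A blockers whose half-maximal inhibitory concentration IC50 falls below 50 µM; inactive = IC50 at or above 50 µM.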
Molecular target: Serine/threonine-protein phosphatase 2A catalytic subunit alpha isoform (Bos taurus) (UniProt P67774)
Assay: PP2A inhibitor potency, phosphohistone substrate, late-stage follow-up, selectivity assay for PP5 inhibitor project, biochemical, bovine brain PP2A, 32P-phosphohistone, dose response, round 5 (AID 624447)
Details: purified bovine PP2A, 32P-phosphohistone dephosphorylation, scintillation

Chain of Serine/threonine-protein phosphatase 2A catalytic subunit alpha isoform (Bos taurus) (P67774 whole entry, looked up, canonical isoform): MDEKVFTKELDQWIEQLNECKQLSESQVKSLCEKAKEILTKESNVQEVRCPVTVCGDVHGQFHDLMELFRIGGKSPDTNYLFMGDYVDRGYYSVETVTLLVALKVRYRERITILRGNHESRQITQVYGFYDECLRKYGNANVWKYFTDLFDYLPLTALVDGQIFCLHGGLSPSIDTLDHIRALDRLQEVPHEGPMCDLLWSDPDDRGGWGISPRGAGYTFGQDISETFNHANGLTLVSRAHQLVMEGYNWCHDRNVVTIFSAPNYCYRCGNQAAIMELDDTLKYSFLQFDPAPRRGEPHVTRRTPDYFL

IC50: inactive
Structure (SMILES): CC(C)Oc1ccccc1-c1n[nH]nc1C(=O)O

— PubChem BioAssay AID624447 (The Scripps Research Institute Molecular Screening Center, 2012)
